Results on one compound are retold here after patent publication US9492508B2, “Parathyroid hormone analogs and uses thereof” (The General Hospital Corporation, priority 2010, dated 2016).

Square brackets hold non-standard residues; d marks the D form. Peptide text beside a SMILES is read from it. hArg = N=C(N)NCCCC[C@H](N)C(=O)O; Aib = CC(C)(N)C(=O)O

For series [1], the target named is T1, human PTHR1 (R0) (Homo sapiens, UniProt Q03431).
T1 construct: expressed in transfected cells; host or cells: COS-7 cells (membranes)
T1 sequence (Q03431 27-593): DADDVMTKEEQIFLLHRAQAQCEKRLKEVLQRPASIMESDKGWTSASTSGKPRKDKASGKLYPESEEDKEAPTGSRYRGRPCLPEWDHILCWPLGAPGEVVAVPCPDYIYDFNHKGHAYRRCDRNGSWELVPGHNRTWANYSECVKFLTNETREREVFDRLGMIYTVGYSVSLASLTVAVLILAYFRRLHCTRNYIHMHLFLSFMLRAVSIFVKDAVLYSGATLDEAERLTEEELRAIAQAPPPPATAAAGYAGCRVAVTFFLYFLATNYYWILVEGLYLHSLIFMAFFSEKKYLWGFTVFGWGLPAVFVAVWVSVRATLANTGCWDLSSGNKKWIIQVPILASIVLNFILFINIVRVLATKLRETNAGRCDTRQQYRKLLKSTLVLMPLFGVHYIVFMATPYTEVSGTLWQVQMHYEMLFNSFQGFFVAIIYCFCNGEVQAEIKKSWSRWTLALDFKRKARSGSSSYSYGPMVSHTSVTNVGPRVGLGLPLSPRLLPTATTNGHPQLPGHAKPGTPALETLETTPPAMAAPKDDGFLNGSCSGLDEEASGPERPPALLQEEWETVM
The experiment in a line: Competition binding, R0 conformation of human PTHR1 (COS-7 membranes, 125I-PTH(1-34) tracer, GTPγS). The settings on record: FIG. 5A. How it is done: (§1) Briefly, the R^0 form of the receptor can be favored by addition of the non-hydrolyzable nucleotide analog GTPγS. The RG form can be favored, for example, by co-transfection of cells with a negative dominant Gαs subunit. […] Data are means of four experiments, each performed in duplicate. Curves were fit to the data using Graph-Pad Prism 4.0.
(§2) Here, competition binding assays for the R^0 and RG PTHR1 conformation were performed in membranes prepared from transfected COS-7 cells, as described by Dean et al., Mol Endocrinol 22:156-66, 2008. Data are means of three experiments, each performed in duplicate. Curves were fit to the data using Graph-Pad Prism 4.0.

Series [2] concerns the target T2, human PTHR1 (RG) (Homo sapiens, UniProt Q03431).
T2 construct: expressed in transfected cells; host or cells: COS-7 cells (membranes)
T2 sequence (Q03431 27-593): T1 sequence (Q03431 27-593)
As to the kind of experiment: Competition binding, RG conformation of human PTHR1 (COS-7 membranes). The settings on record: mean of 3 experiments, read-out: Binding human PTHR1 IC50 (Log M) RG (converted). The method, then:
as §1, §2

The target in series [3] is T3, rat PTHR1 (R0) (Rattus norvegicus, UniProt P25961).
T3 sequence (P25961 27-591): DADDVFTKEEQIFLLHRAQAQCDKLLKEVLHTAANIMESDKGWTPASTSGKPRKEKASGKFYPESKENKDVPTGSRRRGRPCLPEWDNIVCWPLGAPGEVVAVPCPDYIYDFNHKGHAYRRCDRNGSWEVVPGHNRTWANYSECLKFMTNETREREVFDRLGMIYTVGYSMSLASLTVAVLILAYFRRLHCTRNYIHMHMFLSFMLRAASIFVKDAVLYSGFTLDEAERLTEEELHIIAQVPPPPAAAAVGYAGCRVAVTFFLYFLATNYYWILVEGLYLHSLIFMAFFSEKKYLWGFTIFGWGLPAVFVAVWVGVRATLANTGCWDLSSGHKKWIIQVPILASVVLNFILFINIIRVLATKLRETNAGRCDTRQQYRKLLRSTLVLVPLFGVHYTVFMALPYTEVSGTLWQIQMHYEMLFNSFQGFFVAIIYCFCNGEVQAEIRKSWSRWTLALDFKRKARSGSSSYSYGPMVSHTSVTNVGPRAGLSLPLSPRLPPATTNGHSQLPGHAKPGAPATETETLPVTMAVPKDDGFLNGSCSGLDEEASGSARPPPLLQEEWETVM
As to the kind of experiment: Competition binding, R0 conformation of rat PTHR1. The following applies: R0 conformation; read-out: Binding rat PTHR1 IC50 nM R0.
Excerpt: as §1

Series [4] has as its target T4, rat PTHR1 (RG) (Rattus norvegicus, UniProt P25961).
T4 construct: expressed in transfected cells
T4 sequence (P25961 27-591): T3 sequence (P25961 27-591)
As to the kind of experiment: Competition binding, RG conformation of rat PTHR1. The following applies: FIG. 1B.
Excerpt: as §1

The subject of series [5] is MC3T3-E1 cells. The experiment in a line: cAMP RIA in intact MC3T3-E1 cells. It counts as cell-based, mouse. The settings on record: 30 min, room temperature, IBMX. The method, then: cAMP stimulating activity of these polypeptides was also assessed, using two different methods: a radioimmunoassay (RIA; FIG. 2) and a cAMP responsive element fused to a luciferase gene (FIG. 3). Briefly, the RIA cAMP assays were performed in intact MC3T3-E1 cells, a mouse pre-osteoblastic cell line, in 96-well plates, as described by Okazaki et al. (Proc Natl Acad Sci USA 105:16525-30, 2008). […] The cAMP contents of the HCl lysates were then determined by RIA. Data are means of six experiments, each performed in duplicate. Curves were fit to the data using Graph-Pad Prism 4.0.

In series [6] the test system is MC3T3-E1 cells. The experiment in a line: cAMP response following ligand wash-out in MC3T3-E1 cells. It is filed as cell-based, mouse. The settings on record: 100 nM ligand 5 min, then wash-out; FIGS. 7A, 7B. The method, then: Cells were treated at room temperature with vehicle or the indicated ligand (100 nM) for five minutes; for each ligand duplicate wells were used to obtain the initial (maximum cAMP values); in these wells, cells were co-incubated with ligand and IBMX. After five minutes of initial treatment, the buffer was removed, and, for the initial wells, the reactions were terminated by addition of 50 mM HCl. In the other wells, the cells were rinsed three times with buffer, and incubated in buffer for varying times, as indicated on the abscissa; after which the buffer was replaced by a buffer containing IBMX, and the cells were incubated for another five minutes. After that, the buffer was removed and the reactions were terminated by addition of 50 mM HCl. The cAMP contents of the HCl lysates were then determined by RIA.

Series [7] in a line: Blood Ca++ responses in mice. The settings on record: 5 nmol/kg s.c., 4, 6, 8 and 24 hours. It counts as in vivo, mice (C57 BL/6). The method, then:
Blood Ca^++ responses in mice were also assayed. Mice (C57 BL/6) were injected subcutaneously with either vehicle or the indicated ligand to give a final dose of 5 nmol/kg body weight, and blood was withdrawn via the tail at times after injection and assessed for Ca^++ concentration using a Bayer Rapid Lab model 348 blood analyzer. […] A similar experiment using 10 nmol/kg by intravenous injection was also conducted with similar results (FIGS. 8C and 8D).

Series [8] in a line: Solubility, in vitro precipitation assay (PBS pH 7.4 vs 10 mM acetic acid). It is filed as physicochemical. The following applies: pH 7.4. The method, then: The relative solubilities of SP-PTH-AAK (SEQ ID NO:4) and SP-PTH (SEQ ID NO:11) in different buffers were assessed in an in vitro precipitation assay. For each polypeptide, two vials, each containing 50 μg of lyophilized polypeptide powder, were prepared; one vial was reconstituted in 50 μl of PBS at pH 7.4; the other vial was reconstituted in 50 μl of 10 mM acetic acid (pH 2.9) to give final concentrations of 1.0 mg/ml […]. After one hour at room temperature, the vials were centrifuged at 15,000×g for 2 minutes. The supernatant was removed and the protein content assayed using the Pierce BCA assay (Thermo Fischer Scientific, Rockford, Ill.). For each polypeptide, the content of the PBS sample was expressed as percent of the content of the corresponding acetic acid sample.

As for `CC[C@H](C)[C@H](NC(=O)[C@H](CCC(=O)O)NC(=O)[C@H](C)NC(=O)[C@@H](NC(=O)[C@H](Cc1c[nH]cn1)NC(=O)[C@@H](NC(=O)[C@H](CCC(=O)O)NC(=O)[C@H](C)NC(=O)[C@@H](NC(=O)[C@H](CC(C)C)NC(=O)[C@H](CCCCN)NC(=O)[C@H](Cc1c[nH]cn1)NC(=O)[C@H](CC(C)C)NC(=O)[C@H](Cc1ccccc1)NC(=O)[C@H](C)NC(=O)[C@H](CCCNC(=N)N)NC(=O)[C@H](CCCNC(=N)N)NC(=O)[C@H](CCCNC(=N)N)NC(=O)[C@H](C)NC(=O)[C@H](CC(=O)O)NC(=O)[C@H](CCC(N)=O)NC(=O)[C@@H](NC(=O)[C@H](Cc1c[nH]c2ccccc12)NC(=O)[C@H](CCCCN)NC(=O)[C@H](C)NC(=O)[C@H](CCCCNC(=N)N)NC(=O)[C@H](CCC(N)=O)NC(=O)[C@H](Cc1c[nH]cn1)NC(=O)[C@H](CCSC)NC(=O)[C@H](CC(C)C)NC(=O)[C@H](CCC(N)=O)NC(=O)[C@@H](NC(=O)[C@H](CCC(=O)O)NC(=O)C(C)(C)NC(=O)[C@@H](NC(=O)[C@H](C)N)C(C)C)[C@@H](C)CC)[C@@H](C)CC)[C@@H](C)CC)[C@@H](C)CC)[C@@H](C)O)C(N)=O` [AIB-SP-PTH-AAK, [Ala^1,12,18,22,Aib^3,Gln^10,Har^11,Trp^14,Lys^26]PTH(1-14)/PTHrP(15-36)] (H-AV[Aib]EIQLMHQ[hArg]AKWIQDARRRAFLHKLIAEIHTAEI-NH2; N-terminus assumed), in series [1], the “R0 binding at human PTH receptor as compared to PTH(1-34)” value is “enhanced R^0 binding”. Besides, the IC50 in series [2] was 0.372 nM. In series [3], the IC50 was 0.7 nM. Also, the “binding to RG form of rat PTHR1, comparison in words” value in series [4] is “increased”. In series [5], the EC50 worked out at 0.018 nM and the “cAMP MC3T3-E1 cells Emax (pmole/well)” value was found to be 57.9 ± 13.9 pmole/well. Besides, the “cAMP MC3T3-E1 cells EC50 (Log M)” value in series [5] (6 experiments) is −10.7 ± 0.1 Log M. The “cAMP-stimulating activity after ligand wash-out” value in series [6] was “maintained cAMP-stimulating activity for longer periods of time than PTH(1-34)”. Further, in series [7], the “blood calcium levels at later time points vs PTH(1-34) or vehicle” value is listed as “increased”. Also, the “solubility in PBS pH 7.4 (percent of acetic acid sample), in words” value in series [8] is on record as “solubility similar to hPTH(1-34)NH2”.

The term IC50 denotes the concentration needed to halve the response being measured. For orientation: EC50 means the concentration needed to bring the measured effect to its halfway point. Lower therefore signals a more potent agent.
